Measured values published in article PMC6414200, “Stepwise activation mechanism of the scramblase nhTMEM16 revealed by cryo-EM” (eLife, 2019).

Biological target: T1, nhTMEM16 (Fusarium vanettenii, UniProt C7Z7K1)
T1 construct: gene NECHADRAFT_66456; full open reading frame, N-terminal SBP-Myc-3C tag kept for scrambling assay; expressed in S. cerevisiae FGY217, purified in DDM, reconstituted into liposomes; homodimer
T1 sequence (C7Z7K1 1-735): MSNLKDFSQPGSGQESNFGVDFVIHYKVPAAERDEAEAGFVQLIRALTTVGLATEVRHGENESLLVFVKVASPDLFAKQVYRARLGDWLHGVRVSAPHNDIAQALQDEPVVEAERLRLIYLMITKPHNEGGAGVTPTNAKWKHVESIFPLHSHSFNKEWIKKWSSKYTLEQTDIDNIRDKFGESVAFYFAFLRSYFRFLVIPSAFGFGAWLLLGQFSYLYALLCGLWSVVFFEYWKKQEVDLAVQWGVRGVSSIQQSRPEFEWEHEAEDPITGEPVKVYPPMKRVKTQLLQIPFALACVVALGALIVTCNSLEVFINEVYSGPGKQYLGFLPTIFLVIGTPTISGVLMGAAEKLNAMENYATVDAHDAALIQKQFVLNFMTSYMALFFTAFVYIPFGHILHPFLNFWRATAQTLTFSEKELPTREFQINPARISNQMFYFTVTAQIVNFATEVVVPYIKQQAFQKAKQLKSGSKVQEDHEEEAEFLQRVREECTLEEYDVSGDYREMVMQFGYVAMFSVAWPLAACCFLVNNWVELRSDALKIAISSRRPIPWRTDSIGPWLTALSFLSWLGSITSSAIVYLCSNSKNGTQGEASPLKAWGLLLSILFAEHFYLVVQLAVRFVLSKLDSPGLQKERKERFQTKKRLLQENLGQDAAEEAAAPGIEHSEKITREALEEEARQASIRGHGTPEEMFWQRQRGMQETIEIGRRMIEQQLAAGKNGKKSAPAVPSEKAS
Experiment: proteoliposome scrambling assay, dithionite quenching of NBD fluorescence
Type: biochemical
Details: Ca2+-stimulated with basal activity without Ca2+; E. coli polar lipids/egg PC 3:1, pH 7.5, 300 mM KCl; labelled compound; lipid transport (flip-flop)

Structure (SMILES): CCCCCCCC/C=C\CCCCCCCC(=O)OC[C@H](COP(=O)(O)OCCN)OC(=O)CCCCCNc1ccc([N+](=O)[O-])c2nonc12 [18:1-06:0 NBD-PE]
- proteoliposome scrambling assay, dithionite quenching of NBD fluorescence: Traces depict sections of the fluorescence decrease of tail-labeled NBD-PE lipids after addition of dithionite
